Test system: acetic acid-induced writhings in mice
Details: mouse, in vivo, ip
Description: The analgesic activity has been tested by means of the writhing test. As the painful agent, an aqueous solution of acetic acid at 3% was used, injected by intraperitoneal way (0.1 ml/10 g), and the number was recorded of animal' writhings during the observation time of 20 minutes.
Twenty female mice of Albino Swiss strain, weighing 25-28 g, were treated with the compound under test, dissolved in physiologic solution:dimethylsulphoxide (1:1), at the dosage of 0.1 ml/kg/i.p. Other 20 mice, of same strain, sex and weight, were treated with the solvent only. After 40 minutes, the acetic acid was administered to both groups, and the increase of writhings was recorded.

## CC(C)C[C@@H](NC(=O)C(Cc1c[nH]c2ccccc12)C(=O)O)NC(=O)[C@@H]1CCC(=O)N1 (stereo partly drawn) [GLP-g-Leu-m-TRP-OH, N-(pyroglutamyl)-N'-[(R,S)-alpha-carboxy-beta-3-indolyl-propanoyl]-(S)-1,1-diamino-isopentane]
  inhibition of the number of contorsions (writhings): 25%

Reference: patent publication US4748155A, “Pharmacologically active tripeptides and process for their synthesis” (Eniricerche S.p.A., priority 1985, dated 1988)
